Patent US4010264A, “7-[3-Substituted isoxazol-5-yl]-acetamido-cephalosporanic acids and their anti-bacterial use” (Koninklijke Nederlandsche Gist-en Spiritusfabriek N.V., priority 1970, dated 1977)
Values after ≈ are worked out from the molar mass of the structure shown. Structures can show the parent of a compound that is named as a salt. Where two headings read alike, the source gives them in different places.

Legend:
[1] = test system: Bacillus subtilis ATCC 6633; experiment: MIC, agar serial dilution test; assay type: cell-based
[2] = in vivo; settings: mouse, ip
[3] = test system: Pasteurella multocida A723; experiment: MIC, agar serial dilution test; assay type: cell-based
[4] = test system: Brucella melitensis A488; experiment: microbe, parasite or virus in culture; assay type: cell-based; settings: A488, 24 h
[5] = test system: Staphylococcus aureus A 2001; experiment: protection test in mice, Staphylococcus aureus; settings: for ED50: Staphylococcus aureus, A2001, in Mus musculus, sc, 168 h
[6] = test system: Salmonella typhi murium R 172; experiment: in vivo infection test in mice; settings: Salmonella enterica, in Mus musculus
[7] = test system: Staphylococcus aureus A355 (penicillinase-producing); experiment: MIC, agar serial dilution test; settings: 24 h
[8] = test system: Proteus mirabilis O.T.; experiment: in vivo infection test in mice; settings: in Mus musculus
[9] = test system: Streptococcus haemolyticus A266; experiment: MIC, agar serial dilution test; assay type: cell-based
[10] = test system: Klebsiella pneumoniae A809; experiment: MIC, agar serial dilution test; assay type: cell-based
[11] = test system: Streptococcus faecalis L 80; experiment: MIC, agar serial dilution test; assay type: cell-based; settings: Enterococcus faecalis
[12] = test system: Staphylococcus aureus A55; experiment: MIC, agar serial dilution test; assay type: cell-based
[13] = test system: Staphylococcus aureus A 2001; experiment: in vivo infection test in mice; settings: A2001, in Mus musculus
[14] = test system: Staphylococcus aureus A 2000; experiment: in vivo infection test in mice; settings: A2000, in Mus musculus
[15] = test system: Pseudomonas aeruginosa A 1058; experiment: in vivo infection test in mice; settings: A1058, in Mus musculus
[16] = test system: Escherichia coli 65161; experiment: protection test in mice, Escherichia coli; assay type: in vivo, female mice (Swiss SPF); settings: for ED50: ip, 168 h, Escherichia coli 65161 i.p., method of administration intraperitoneal
[17] = blood (serum) contents after intramuscular administration in rabbits; assay type: in vivo, rabbits (Nieuw Zeelander); settings: rabbit, im, 50 mg/kg intramuscular, average, read-out: Serum level; for concentration at 0.5 h: after 1/2 hr.; for concentration at 0.25 h: after 1/4 hr.; for concentration at 1 h: after 1 hr.; for concentration at 2 h: after 2 hrs.; for concentration at 4 h: after 4 hrs.
Protocol: (§1) c. […] The rabbits were provided with "Cunicon" and water ad libitum. Each test group consisted of 3 rabbits. The dose was 50 mg/kg using water as the vehicle. […] The contents of the compound in the samples were determined microbiologically (only microbiologically detected amounts, i.e. anti-bacterially active concentrations only have been indicated).

[18] = test system: Staphylococcus aureus A 321; experiment: in vivo infection test in mice; settings: A321, in Mus musculus
[19] = test system: Staphylococcus aureus A321; experiment: MIC, agar serial dilution test; assay type: cell-based
[20] = percentages of bound serum by ultrafiltration and dialysis; assay type: in vitro ADME; settings: read-out: percentage of bound serum (converted)
[21] = test system: Staphylococcus aureus L160a (penicillinase-producing); experiment: MIC, agar serial dilution test; settings: 24 h
[22] = secretion of compound in urine after intramuscular administration in rabbits; assay type: in vivo, rabbits (Nieuw Zeelander); settings: rabbit, im, 50 mg/kg intramuscular, average, read-out: Secretion of compound in urine in % of the administered dose; for dose excreted at 6 h: after 6 hrs.; for dose excreted at 27 h: after 27 hrs.
Protocol: as §1

[23] = test system: Diplococcus pneumoniae L 54; experiment: MIC, agar serial dilution test; assay type: cell-based; settings: Streptococcus pneumoniae
[24] = ATCC6633, Bacillus subtilis ATCC 6633, 24 hours at 37° C, read-out: MIC
[25] = Pasteurella multocida A723, 24 hours at 37° C, read-out: MIC
[26] = Streptococcus haemolyticus A266, 24 hours at 37° C, read-out: MIC
[27] = Klebsiella pneumoniae A809, 24 hours at 37° C, read-out: MIC
[28] = Staphylococcus aureus A55, 24 hours at 37° C, read-out: MIC
[29] = Staphylococcus aureus A321, 24 hours at 37° C, read-out: MIC
[30] = L54, Diplococcus pneumoniae L 54, 24 hours at 37° C, read-out: MIC

CC(=O)OCC1=C(C(=O)O)N2C(=O)[C@@H](NC(=O)Cc3cccs3)[C@H]2SC1 [Cephalotin, reference compound]
MIC ([1]; Bacillus subtilis, ATCC6633, 24 h): 0.03 µg/mL (≈ 0.0757 µM) | LD50 [2]: 6000 to 8000 mg/kg | MIC ([3]; Pasteurella multocida, A723, 24 h): 0.25 µg/mL (≈ 0.631 µM) | MIC [4]: 6 µg/mL (≈ 15.1 µM) | ED50 [5]: 43 mg/kg | ED50 ([6]; ip): 79.4 mg/kg | ED50 ([6]; sc): ~200 mg/kg | MIC [7]: 1 µg/mL (≈ 2.52 µM) | ED50 ([8]; ip): 79.4 mg/kg | ED50 ([8]; sc): 68.1 mg/kg | MIC ([9]; Streptococcus, A266, 24 h): 0.06 µg/mL (≈ 0.151 µM) | MIC ([10]; Klebsiella pneumoniae, A809, 24 h): 0.5 µg/mL (≈ 1.26 µM) | MIC ([11]; L80, 24 h): 25 µg/mL (≈ 63.1 µM) | MIC ([12]; Staphylococcus aureus, A55, 24 h): 0.25 µg/mL (≈ 0.631 µM) | ED50 ([13]; ip): 27.1 mg/kg | ED50 ([13]; po): > 68.1 mg/kg | ED50 ([14]; ip): 20 mg/kg | ED50 ([14]; po): 147 mg/kg | ED50 ([14]; sc): 110 mg/kg | ED50 ([15]; ip): > 215 mg/kg | ED50 ([15]; sc): > 215 mg/kg | ED50 [16]: 115 mg/kg | concentration at 0.5 h [17]: 33900 ng/mL | concentration at 0.25 h [17]: 73800 ng/mL | concentration at 1 h [17]: 8500 ng/mL | concentration at 2 h [17]: < 1100 ng/mL | concentration at 4 h [17]: < 1000 ng/mL | ED50 ([18]; ip): 1.9 mg/kg | ED50 ([18]; po): 14.7 mg/kg | ED50 ([18]; sc): 16.2 mg/kg | MIC ([19]; Staphylococcus aureus, A321, 24 h): 0.25 µg/mL (≈ 0.631 µM) | fraction unbound ([20]; dialysis): ~0.3 | fraction unbound ([20]; ultrafiltration): ~0.3 | MIC [21]: 1 µg/mL (≈ 2.52 µM) | dose excreted at 6 h [22]: 22.2% | dose excreted at 27 h [22]: 26.9% | MIC ([23]; L54, 24 h): 0.25 µg/mL (≈ 0.631 µM)

CC1=C(C(=O)O)N2C(=O)C(NC(=O)Cc3cc(-c4c(Cl)cccc4Cl)no3)C2SC1 (stereo not shown) [Example IV, Sodium salt of 7{[3-(2,6-dichlorophenyl)isoxazol-5-yl]acetamido}desacetoxycephalosporanicacid]
MIC [1, 24]: 1 µg/mL | MIC [3, 25]: 6 µg/mL | MIC [4]: 12.5 µg/mL | ED50 ([6]; ip): > 215 mg/kg | MIC [7]: 3 µg/mL | ED50 ([8]; ip): > 215 mg/kg | MIC [9, 26]: 0.5 µg/mL | MIC [10, 27]: > 100 µg/mL | MIC ([11]; L80, 24 h): 12.5 µg/mL | MIC [12, 28]: 0.75 µg/mL | ED50 ([13]; ip): 23.3 mg/kg | ED50 ([13]; po): ~200 mg/kg | ED50 ([13]; sc): > 215 mg/kg | ED50 ([14]; ip): 19.6 mg/kg | ED50 ([14]; po): > 215 mg/kg | ED50 ([14]; sc): > 215 mg/kg | ED50 ([15]; ip): > 215 mg/kg | ED50 ([18]; ip): 23.3 mg/kg | ED50 ([18]; po): 50.1 mg/kg | ED50 ([18]; sc): 31.6 mg/kg | MIC [19, 29]: 0.5 µg/mL | MIC [21]: 1.5 µg/mL | MIC [23, 30]: 0.75 µg/mL

CC(=O)OCC1=C(C(=O)O)N2C(=O)C(NC(=O)Cc3cc(C)no3)C2SC1 (stereo not shown) [Example XXII, 7-{[3-methyl-isoxazol-5-yl]acetamido}cephalosporanic acid]
MIC [1, 24]: 0.06 µg/mL (≈ 0.152 µM) | LD50 [2]: > 8000 mg/kg | MIC [3, 25]: 3 µg/mL (≈ 7.59 µM) | MIC [4]: 12.5 µg/mL (≈ 31.6 µM) | ED50 [5]: 23 mg/kg | Potency Ratio ([5]; vs Cephalotin, S. aureus A 2001, subcutaneously, limits (0.73-4.92) printed): 1.90 | MIC [7]: 1 µg/mL (≈ 2.53 µM) | MIC [9, 26]: 0.12 µg/mL (≈ 0.303 µM) | MIC [10, 27]: 3 µg/mL (≈ 7.59 µM) | MIC ([11]; L80, Streptococcus faecalis L 80, 24 hours at 37° C, read-out: MIC): 25 µg/mL (≈ 63.2 µM) | MIC [12, 28]: 0.5 µg/mL (≈ 1.26 µM) | ED50 [16]: 100 mg/kg | Potency Ratio ([16]; vs Cephalotin, E. coli 65161, intraperitoneal, limits (0.52-2.53) printed): 1.15 | concentration at 0.5 h [17]: 45000 ng/mL | concentration at 0.25 h [17]: 57500 ng/mL | concentration at 1 h [17]: 12300 ng/mL | concentration at 2 h [17]: 1700 ng/mL | concentration at 4 h [17]: < 1000 ng/mL | MIC [19, 29]: 0.5 µg/mL (≈ 1.26 µM) | fraction unbound ([20]; dialysis): 0.72 | fraction unbound ([20]; ultrafiltration): 0.67 | MIC [21]: 1 µg/mL (≈ 2.53 µM) | dose excreted at 6 h [22]: 41.4% | dose excreted at 27 h [22]: 46.9% | MIC [23, 30]: 0.5 µg/mL (≈ 1.26 µM)
